Consider 1 substance from patent US20060030537A1, “Ceramide kinase and uses thereof” (priority 2004, published 2006).

One data set concerns ceramide kinase. As to the kind of experiment: Ceramide kinase assay on lysates of treated or transfected A549 cells. In kind it is cell-based, human. The following applies: 26 hours after transfection. As to the method:
FIGS. 5A-5C. IL-1β and calcium ionophore increase ceramide-1-phosphate production and ceramide kinase activity. FIGS. 5A and 5B. The effect of IL-1 and A23187 on C-1-P levels and AA liberation. A549 cells (2×10^5) were labeled overnight with 10 μCi/mL [^3H]-arachidonic acid (10 nM), washed, and then treated with either 2.5 ng/mL of IL-1β (FIG. 5A) or 1 μg/mL of A23187 (FIG. 5B) for the indicated times. Two hours prior to Bligh-Dyer extraction, cells were chased with 20 μM of D-e-C6 NBD-ceramide (Matreya). At the appropriate times, media was taken for AA analysis, and lipids from the cells were extracted by the Bligh-Dyer method followed by analysis of NBD-C-1-P formation. Data are presented as % control of C-1-P levels (J) and AA release (B). Data are representative of three separate determinations on 2 separate occasions. FIG. 5C. IL-1β and calcium ionophore increase ceramide kinase activity. A549 cells (5×10^5) were treated with either 2.5 ng/mL of IL-1β for 3.5 hours or 1 μg/mL of A23187 for 5 minutes. Cells were then washed, lysed in assay buffer, and assayed for ceramide kinase activity. Data is presented as % control of ceramide kinase activity (Arbitrary densitometry units of fluorescent NBD-C-1-P produced/min/mg of total cellular protein). Data are representative of three separate determinations on 2 separate occasions.
FIGS. 6A-6B. Ceramide kinase RNAi downregulates endogenous ceramide kinase activity and mRNA levels. FIG. 6A. The effect of ceramide kinase RNAi on endogenous ceramide kinase activity. […] Following the same procedure as outlined in FIG. 6A, total RNA was extracted and analyzed via logarithmic reverse-transcriptase polymerase chain reaction for human ceramide kinase and 18s ribosomal RNA. […]
Ceramide Kinase Assay: Ceramide kinase activity was measured as described previously with slight modifications (Bajjalieh, S., and Batchelor, R. (2001) Methods Enzymol. 311, 207-215). […] Following Bligh-Dyer extraction, lipids were separated by thin layer chromatography, and NBD-C-1-P was visualized/quantified by fluorescent phosphorimaging.

The subject of a further data set is L929 fibroblasts. Kind of data set: PGE2 synthesis in L929 fibroblasts. In kind it is cell-based. The following applies: L929 fibroblasts. As to the method: FIGS. 3A-3B. FIG. 3A. The effects of ceramide-1-phosphate on TXB2 synthesis. A549 cells (1×10^5) were treated with D-e-C16 ceramide-1-phosphate (1 μM) solubilized in 2% dodecane/98% ethanol (final concentration in treatments was 0.002% dodecane/0.098% ethanol (EtOH)) for the indicated times. The results are presented as % control of TXB2 controlled for equivalent number of cells by MTT assay. Data are representative of 3 separate determinations on 2 separate occasions. FIG. 3B. The effects of ceramide-1-phosphate on AA release and PGE2 synthesis in L929 fibroblasts. L929 cells (5×10^4) were labeled overnight with 5 μCi/mL [^3H]-arachidonic acid (5 nM). Cells were washed and placed in DMEM supplemented with 2% fetal bovine serum for two hours. Cells were then treated with 2.5 μM D-e-C16 ceramide-1-phosphate (solubilized in 98% ethanol/2% dodecane) for the indicated times. […]
Quantification of prostaglandin E2 and thromboxane B2 synthesis: For measurement of PGE2 and TXB2 levels, aliquots of media were taken at indicated time points and assayed according to manufacturer's instructions using the prostaglandin E2 and thromboxane B2 monoclonal EIA Kit from Cayman Chemical. […] Results were controlled for equivalent number of cells quantified by MTT assay.

“ceramide kinase RNAi: 21-nucleotide duplex, human ceramide kinase RNAi starting 142 nucleotides from start codon (SEQ ID NO: 3 and 4) (chain 1 UGCCUGCUCUGUGCCUGUATT; chain 2 UACAGGCACAGAGCAGGCATT; chemistry not given here)”: the “decrease of endogenous ceramide kinase activity” value in the data set with ceramide kinase worked out at 67%. In the data set with L929 fibroblasts, the “inhibition of PGE2 synthesis in response to IL-1β” value is listed as “over 60%”.
